Tests used:
[1] = system: panel of 12 human tumor cell lines; assay: Monolayer assay, panel of 12 human tumor cell lines; assay type: cell-based; settings: for IC50 / Mean IC70: mean over panel of 12 human tumor cell lines, test range 0.0001 μM-10 μM; for % Selectivity / Rating (selectivity) / Selectivity Total (cell lines with individual IC70 < 1/3 mean IC70) / in vitro antitumor activity: panel of 12 human tumor cell lines
Description: (§1) Cell lines were routinely passaged once or twice weekly and maintained in culture for upto 20 passages. All cells were grown at 37° C. in a humidified atmosphere with 5% CO2 in RPMI 1640 medium supplemented with 10% (v/v) fetal calf serum (FCS) and 0.1 mg/mL gentamicin (medium and all other components from PAA, Cölbe, Germany). Authenticity of all cell lines was proven at the DSMZ by STR (short tandem repeat) analysis, a PCR based DNA-fingerprinting methodology.
Stock solutions of the test compounds (330 μg/mL in DMSO) were prepared and stored in small aliquots (200 μL) at −20° C. An aliquot of the stock solution was thawed on the day of use and stored at room temperature prior to and during dosing. The subsequent dilutions were done with complete RPMI 1640 cell culture medium as follows: the stock solution was diluted 1:22 followed by serial dilutions finally resulting in a (compared to the test concentration) 15-fold higher concentration. For the final dilution step (1:15), 10 μL/well of the respective compound solution was directly added to 140 μL/well culture medium. Test compounds were tested at […]. Each concentration was evaluated in triplicate.
A modified propidium iodide assay was used to assess the effect of the test compounds on the growth of the human tumor cell lines and was designed as in reference, Anti-cancer Drugs, 6, 522-532, (1995), the disclosure of which is incorporated by reference for the teaching of the assay.
Cells were plated in 96-well flat-bottom microtiter plates at a cell density of 4,000 to 10,000 cells/well. After a 24 h recovery period to allow the cells to resume exponential growth, the test compounds were applied at five concentrations in log increments in triplicates in two independent runs. After 4 days of treatment, the medium with/without test compounds including all floating (i.e., dead) cells was aspirated and replaced by 200 μL of an aqueous propidium iodide (PI) solution (7 μg/mL). To measure the viable cell number, the remaining adherent cells were killed and permeabilized by repeated freezing and thawing and PI fluorescence was measured using the Cytofluor 4000 microplate reader (excitation λ=530 nm, emission λ=620 nm), which was a measure for the number of cells which survived treatment. Pharmacological effects on cell proliferation and survival were expressed as Test/Control×100 (% T/C) values, with T and C representing the fluorescence read-outs for wells with and without test compound, respectively, i.e. T/C represents the ratio of viable cell numbers following incubation of cell line with/without test compound. Based on the T/C values IC50 and IC70 values, being the drug concentration necessary to inhibit cell growth by 50% (T/C=50%) and 70% (T/C=30%), respectively, were determined by plotting compound concentration versus cell viability (T/C). IC-values were calculated based on the principle of linear two-point curve fit.

[2] = system: T 24; assay: Monolayer assay (modified propidium iodide), T 24; assay type: cell-based, human; settings: T 24, Bladder; 4 days of treatment
Source text: (§2) Oncotest GmbH, Germany's proprietary tumor cell line panel comprises 40 cell lines. These cell lines were derived from 15 different tumor histotypes, each represented by 1 to 6 different cell lines. Cell lines were established from cancer of the bladder (3), colon (4), head and neck (1), lung (6), breast (3), pancreas (3), prostate (4), ovary (2), kidney (3), liver (1), stomach (1) and the uteri body (1), as well as from melanoma (3), sarcoma (2) and pleuramesothelioma (3). Out of these 40 cell lines, 24 cell lines were established at Oncotest, from patient-derived tumor xenografts. The other 16 cell lines were either provided by the NCI (Bethesda; MD, USA) or were purchased from ATCC (Rockville, Md., USA) or DSMZ (Braunschweig, Germany).
as §1, with “Authenticity of all cell lines was proven at the DSMZ by STR (short tandem repeat) analysis, a PCR based DNA-fingerprinting methodology.” left out
(§3) Stock solutions of the test compounds (330 μg/mL in DMSO) were prepared and stored in small aliquots (200 μL) at −20° C. […] Each concentration was evaluated in triplicate. […]
(§4) Cells were plated in 96-well flat-bottom microtiter plates at a cell density of 4,000 to 10,000 cells/well. […] To measure the viable cell number, the remaining adherent cells were killed and permeabilized by repeated freezing and thawing and PI fluorescence was measured using the Cytofluor 4000 microplate reader (excitation λ=530 nm, emission λ=620 nm), which was a measure for the number of cells which survived treatment. Pharmacological effects on cell proliferation and survival were expressed as Test/Control×100 (% T/C) values, with T and C representing the fluorescence read-outs for wells with and without test compound, respectively, i.e. T/C represents the ratio of viable cell numbers following incubation of cell line with/without test compound. […] IC-values were calculated based on the principle of linear two-point curve fit. […]

[3] = system: LXF 526L; assay: Monolayer assay (modified propidium iodide), LXF 526L; assay type: cell-based, human; settings: Lung, 4 days of treatment
Source text: as §2
as §1, with “Authenticity of all cell lines was proven at the DSMZ by STR (short tandem repeat) analysis, a PCR based DNA-fingerprinting methodology.” left out
as §3, §4

[4] = system: CXF 269L; assay: Monolayer assay (modified propidium iodide), CXF 269L; assay type: cell-based, human; settings: Colon, 4 days of treatment
Source text: as §2
as §1, with “Authenticity of all cell lines was proven at the DSMZ by STR (short tandem repeat) analysis, a PCR based DNA-fingerprinting methodology.” left out
as §3, §4

[5] = system: MDA 231; assay: Monolayer assay (modified propidium iodide), MDA 231; assay type: cell-based, human; settings: MDA 231, Mammary; 4 days of treatment
Source text: as §2
as §1, with “Authenticity of all cell lines was proven at the DSMZ by STR (short tandem repeat) analysis, a PCR based DNA-fingerprinting methodology.” left out
as §3, §4

SMILES	IC50 [1] [nM]	Mean IC70 [1] [nM]	% Selectivity [1] [%]	Rating (selectivity) [1]	Selectivity Total (cell lines with individual IC70 < 1/3 mean IC70) [1]	in vitro antitumor activity [1]	IC70 [2] [ng/mL]	IC70 [3] [ng/mL]	IC70 [4] [ng/mL]	IC70 [5] [ng/mL]
C/C=C/C(O)C(C)/C=C/C(=NOCC(=O)N1CCCCC1)C(C)C(O)C(C)C1OC(=O)/C(OC)=C/C(C)=C/C(C)C(O)C(CC)C(O)C(C)C/C(C)=C/C=C/C1OC (stereo in doubt) [Example 13, (3Z,5E,13E,15E)-18-((5Z,6E,10E)-3,9-Dihydroxy-4,8-dimethyl-5-(2-oxo-2-(piperidin-1-yl)ethoxyimino)dodeca-6,10-dien-2-yl)-9-ethyl-8,10-dihydroxy-3,17-dimethoxy-5,7,11,13-tetramethyloxacyclooctadeca-3,5,13,15-tetraen-2-one]	30	97	17	(+ +)	2/12	showed in vitro antitumor activity				
C/C=C/C(O)C(C)/C=C/C(=NOCC(=O)NCc1ccc(F)cc1)C(C)C(O)C(C)C1OC(=O)/C(OC)=C/C(C)=C/C(C)C(O)C(CC)C(O)C(C)C/C(C)=C/C=C/C1OC (stereo in doubt) [Example 15, 2-((Z)-((6E,10E)-2-((4E,6E,14E,16Z)-11 Ethyl-10,12-dihydroxy-3,17-dimethoxy-7,9,13,15-tetramethyl-18-oxooxacyclooctadeca-4,6,14,16-tetraen-2-yl)-3,9-dihydroxy-4,8-dimethyldodeca-6,10-dien-5-ylidene)aminooxy)-N-(4-fluorobenzyl)acetamide]	1	3	50	(+++) (+++ (% selective > 20%))	6/12	showed in vitro antitumor activity				
C/C=C/C(O)C(C)/C=C/C(=N\OC)C(C)C(O)C(C)C1OC(=O)/C(OC)=C/C(C)=C/C(C)C(O)C(CC)C(O)C(C)C/C(C)=C/C=C/C1OC (stereo not shown) [Example 8, (3Z,5E,13E,15E)-18-((5E,6E,10E)-3,9-Dihydroxy-5-(methoxyimino)-4,8-dimethyldodeca-6,10-dien-2-yl)-9-ethyl-8,10-dihydroxy-3,17-dimethoxy-5,7,11,13-tetramethyloxacycloocta deca-3,5,13,15-tetraen-2-one]							≤ 0.3	≤ 0.3	≤ 0.3	≤ 0.3
C/C=C/C(O)C(C)/C=C/C(=NOCC(=O)N1CCN(C)CC1)C(C)C(O)C(C)C1OC(=O)/C(OC)=C/C(C)=C/C(C)C(O)C(CC)C(O)C(C)C/C(C)=C/C=C/C1OC (stereo in doubt) [Example 11, (3Z,5E,13E,15E)-18-((5Z,6E,10E)-3,9-Dihydroxy-4,8-dimethyl-5-(2-(4-methylpiperazin-1-yl)-2-oxoethoxyimino)dodeca-6,10-dien-2-yl)-9-ethyl-8,10-dihydroxy-3,17-dimethoxy-5,7,11,13-tetramethyloxacyclooctadeca-3,5,13,15-tetraen-2-one]	6	20	25	(+ + +)	3/12	showed in vitro antitumor activity				
C/C=C/C(O)C(C)/C=C/C(=NOCC(=O)N1CCC(N2CCCCC2)CC1)C(C)C(O)C(C)C1OC(=O)/C(OC)=C/C(C)=C/C(C)C(O)C(CC)C(O)C(C)C/C(C)=C/C=C/C1OC (stereo in doubt) [Example 14, (3Z,5E,13E,15E)-18-((5Z,6E,10E)-5-(2-(1,4′-Bipiperidin-1′-yl)-2-oxoethoxyimino)-3,9-dihydroxy-4,8-dimethyldodeca-6,10-dien-2-yl)-9-ethyl-8,10-dihydroxy-3,17-dimethoxy-5,7,11,13-tetramethyloxacyclooctadeca-3,5,13,15-tetraen-2-one]	358	762	8	(+) (+ (4% > selective >= 12%))	1/12	showed in vitro antitumor activity				
C/C=C/C(O)C(C)/C=C/C(=NOCC(=O)O)C(C)C(O)C(C)C1OC(=O)/C(OC)=C/C(C)=C/C(C)C(O)C(CC)C(O)C(C)C/C(C)=C/C=C/C1OC (stereo in doubt) [Example 10, ((Z)-((6E,10E)-2-((4E,6E,14E,16Z)-11-Ethyl-10,12-dihydroxy-3,17-dimethoxy-7,9,13,15-tetramethyl-18-oxooxacyclooctadeca-4,6,14,16-tetraen-2-yl)-3,9-dihydroxy-4,8-dimethyldodeca-6,10-dien-5-ylidene)aminooxy)acetic acid]	514	1258	8	(+) (+ (4% > selective >= 12%))	1/12	showed in vitro antitumor activity				
C/C=C/C(O)C(C)/C=C/C(=NOCC(=O)NCCO)C(C)C(O)C(C)C1OC(=O)/C(OC)=C/C(C)=C/C(C)C(O)C(CC)C(O)C(C)C/C(C)=C/C=C/C1OC (stereo in doubt) [Example 12, 2-((Z)-((6E,10E)-2-((4E,6E,14E,16Z)-11-Ethyl-10,12-dihydroxy-3,17-dimethoxy-7,9,13,15-tetramethyl-18-oxooxacyclooctadeca-4,6,14,16-tetraen-2-yl)-3,9-dihydroxy-4,8-dimethyldodeca-6,10-dien-5-ylidene)aminooxy)-N-(2-hydroxyethyl)acetamide]	2	6	42	(+ + +)	5/12	showed in vitro antitumor activity				
